Test results as given in PubChem BioAssay (NCI).
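Tested at 5 concentrations; 48 h exposure; 96-well plates; endpoints linearly interpolated, else capped at highest concentration. The concentration for 50% growth inhibition is given as GI50. TGI marks complete inhibition of growth.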

Legend:
Assay in all cases: inhibition of tumour cell growth, NCI panel, 48 h
MDA-MB-231 breast = system: MDA-MB-231 breast
SW-620 colon = system: SW-620 colon
NCI-H522 lung = system: NCI-H522 lung
786-0 renal = system: 786-0 renal
M14 melanoma = system: M14 melanoma
LOX IMVI melanoma = system: LOX IMVI melanoma
SNB-19 CNS = system: SNB-19 CNS
UO-31 renal = system: UO-31 renal
UACC-257 melanoma = system: UACC-257 melanoma
OVCAR-4 ovarian = system: OVCAR-4 ovarian

CCC(C)C(=O)OCC(=O)c1ccc(-c2ccccc2)cc1 (configuration not stated)
TGI (MDA-MB-231 breast): > 100 µM
TGI (SW-620 colon): > 100 µM
TGI (NCI-H522 lung): 74.9 µM
TGI (786-0 renal): > 100 µM
TGI (M14 melanoma): > 100 µM
TGI (LOX IMVI melanoma): > 100 µM
TGI (SNB-19 CNS): > 100 µM
TGI (UO-31 renal): > 100 µM
TGI (UACC-257 melanoma): 87.4 µM

CC(=O)O[C@H]1CC[C@@]2(C)C(=C/C(=N/OCCN3CCCC3)[C@H]3[C@@H]4CC[C@H](OC(C)=O)[C@@]4(C)CC[C@@H]32)C1
GI50 (MDA-MB-231 breast): 38.7 µM
TGI (MDA-MB-231 breast): > 100 µM
GI50 (SW-620 colon): 24.1 µM
TGI (SW-620 colon): 59.8 µM
GI50 (NCI-H522 lung): 47.5 µM
TGI (NCI-H522 lung): > 100 µM
GI50 (786-0 renal): 30.8 µM
TGI (786-0 renal): > 100 µM
GI50 (OVCAR-4 ovarian): > 100 µM
TGI (OVCAR-4 ovarian): > 100 µM
GI50 (M14 melanoma): 17.6 µM
TGI (M14 melanoma): 37.2 µM
GI50 (LOX IMVI melanoma): 19.6 µM
TGI (LOX IMVI melanoma): 38.1 µM
GI50 (SNB-19 CNS): 69.1 µM
TGI (SNB-19 CNS): > 100 µM
GI50 (UO-31 renal): 20.8 µM
TGI (UO-31 renal): 53.3 µM

CCOc1ccc2c(c1)c(CC(=O)O)cn2C
TGI (MDA-MB-231 breast): > 100 µM
TGI (NCI-H522 lung): > 100 µM
TGI (786-0 renal): > 100 µM
TGI (M14 melanoma): > 100 µM
TGI (LOX IMVI melanoma): > 100 µM
TGI (SNB-19 CNS): > 100 µM
TGI (UO-31 renal): > 100 µM
TGI (UACC-257 melanoma): > 100 µM

CC(=O)NC(C=O)C(O[C@H](C)C(=O)NC(C)C(=O)NC(CCC(N)=O)C(=O)OCc1ccccc1)C(O)C(O)COC(=O)CCNc1c2ccccc2nc2cccc([N+](=O)[O-])c12 (some centres not stated)
TGI (SW-620 colon): 7.44 µM
TGI (NCI-H522 lung): 4.49 µM
TGI (786-0 renal): 18.7 µM
TGI (OVCAR-4 ovarian): 25.3 µM
TGI (M14 melanoma): 4.58 µM
TGI (LOX IMVI melanoma): 31.3 µM
TGI (SNB-19 CNS): 17.4 µM
TGI (UO-31 renal): 35.9 µM
TGI (UACC-257 melanoma): 20.3 µM

c1ccc(OCc2nnc3n2N=C(c2ccccc2)CS3)cc1
TGI (SW-620 colon): > 100 µM
TGI (NCI-H522 lung): > 100 µM
TGI (786-0 renal): > 100 µM
TGI (OVCAR-4 ovarian): > 100 µM
TGI (M14 melanoma): > 100 µM
TGI (LOX IMVI melanoma): > 100 µM
TGI (SNB-19 CNS): > 100 µM
TGI (UO-31 renal): > 100 µM
TGI (UACC-257 melanoma): > 100 µM

Cc1ccc(NC(=O)CCc2n[nH]c(=S)o2)cc1
TGI (SW-620 colon): > 100 µM
TGI (NCI-H522 lung): > 100 µM
TGI (786-0 renal): > 100 µM
TGI (OVCAR-4 ovarian): > 100 µM
TGI (M14 melanoma): > 100 µM
TGI (LOX IMVI melanoma): > 100 µM
TGI (SNB-19 CNS): > 100 µM
TGI (UO-31 renal): > 100 µM
TGI (UACC-257 melanoma): > 100 µM

CC(=O)c1ccc(NC(=O)COC(=O)c2cccc3c(=O)c4ccccc4[nH]c23)cc1
TGI (SW-620 colon): > 100 µM
TGI (NCI-H522 lung): > 100 µM
TGI (786-0 renal): > 100 µM
TGI (OVCAR-4 ovarian): 25.9 µM
TGI (M14 melanoma): > 100 µM
TGI (LOX IMVI melanoma): 51.5 µM
TGI (SNB-19 CNS): 68.6 µM
TGI (UO-31 renal): > 100 µM
TGI (UACC-257 melanoma): > 100 µM

CCCCCCCCCCCc1c(O)c(=O)c2c(oc3c(=O)c(CCCCCCCCCCC)c(O)c(=O)c3n2-c2ccc(N(C)C)cc2)c1=O
TGI (SW-620 colon): 68.6 µM
TGI (NCI-H522 lung): > 100 µM
TGI (786-0 renal): 33.9 µM
TGI (OVCAR-4 ovarian): 30.7 µM
TGI (M14 melanoma): 32.8 µM
TGI (LOX IMVI melanoma): 50.7 µM
TGI (SNB-19 CNS): 58.9 µM
TGI (UACC-257 melanoma): 40.2 µM

CN(CCCCCl)P(=O)(OCc1ccc([N+](=O)[O-])o1)OCC1OC(n2cnc([N+](=O)[O-])c2N)C(O)C1O (configuration not stated)
GI50 (MDA-MB-231 breast): > 100 µM
TGI (MDA-MB-231 breast): > 100 µM
GI50 (SW-620 colon): > 100 µM
TGI (SW-620 colon): > 100 µM
GI50 (NCI-H522 lung): > 100 µM
TGI (NCI-H522 lung): > 100 µM
GI50 (786-0 renal): > 100 µM
TGI (786-0 renal): > 100 µM
GI50 (OVCAR-4 ovarian): > 100 µM
TGI (OVCAR-4 ovarian): > 100 µM
GI50 (LOX IMVI melanoma): > 100 µM
TGI (LOX IMVI melanoma): > 100 µM
GI50 (SNB-19 CNS): > 100 µM
TGI (SNB-19 CNS): > 100 µM
GI50 (UO-31 renal): > 100 µM
TGI (UO-31 renal): > 100 µM
GI50 (UACC-257 melanoma): > 100 µM
TGI (UACC-257 melanoma): > 100 µM

Cc1c2c(c(C)c3c1[nH]c1ccccc13)CN(C)CC2
TGI (SW-620 colon): 28.6 µM
TGI (NCI-H522 lung): 31.3 µM
TGI (786-0 renal): 29.6 µM
TGI (OVCAR-4 ovarian): > 100 µM
TGI (M14 melanoma): 28.4 µM
TGI (LOX IMVI melanoma): 29.3 µM
TGI (SNB-19 CNS): > 100 µM
TGI (UO-31 renal): 53 µM
TGI (UACC-257 melanoma): 31.4 µM

NC(=O)NC1C(C(=O)O)N(Cc2ccccc2)C(=O)N1Cc1ccccc1 (configuration not stated)
TGI (SW-620 colon): > 100 µM
TGI (NCI-H522 lung): > 100 µM
TGI (786-0 renal): > 100 µM
TGI (OVCAR-4 ovarian): > 100 µM
TGI (M14 melanoma): > 100 µM
TGI (LOX IMVI melanoma): > 100 µM
TGI (SNB-19 CNS): > 100 µM
TGI (UO-31 renal): > 100 µM
TGI (UACC-257 melanoma): > 100 µM

Cl.Fc1c[c-]c(-c2ccccn2)c(F)c1.[Pt].c1ccc([PH+](C[PH+](c2ccccc2)c2ccccc2)c2ccccc2)cc1
GI50 (SW-620 colon): 0.197 µM
TGI (SW-620 colon): 0.494 µM
GI50 (786-0 renal): 0.211 µM
TGI (786-0 renal): 0.468 µM
GI50 (OVCAR-4 ovarian): 0.267 µM
TGI (OVCAR-4 ovarian): 0.927 µM
GI50 (M14 melanoma): 0.314 µM
TGI (M14 melanoma): 1.02 µM
GI50 (SNB-19 CNS): 0.343 µM
TGI (SNB-19 CNS): 1.32 µM
GI50 (UACC-257 melanoma): 0.269 µM
TGI (UACC-257 melanoma): 0.829 µM

COc1ccc(C(=O)C#Cc2c[nH]c(=O)[nH]c2=O)cc1
TGI (SW-620 colon): 26.7 µM
TGI (NCI-H522 lung): 10.6 µM
TGI (786-0 renal): 25 µM
TGI (OVCAR-4 ovarian): 33.1 µM
TGI (M14 melanoma): 18 µM
TGI (LOX IMVI melanoma): 9.52 µM
TGI (SNB-19 CNS): 44.7 µM
TGI (UO-31 renal): 35.2 µM
TGI (UACC-257 melanoma): 27.4 µM

COCCOCCOCCOc1cccc2c1C(=O)c1cccc(OCCOCCOCCOC)c1C2=O
TGI (SW-620 colon): > 100 µM
TGI (786-0 renal): > 100 µM
TGI (OVCAR-4 ovarian): > 100 µM
TGI (M14 melanoma): > 100 µM
TGI (LOX IMVI melanoma): > 100 µM
TGI (SNB-19 CNS): > 100 µM
TGI (UACC-257 melanoma): > 100 µM

O=C1OC(=O)C2C3C=CC(C12)C1C2C=CC2C31 (configuration not stated)
TGI (SW-620 colon): > 100 µM
TGI (NCI-H522 lung): > 100 µM
TGI (786-0 renal): > 100 µM
TGI (OVCAR-4 ovarian): > 100 µM
TGI (LOX IMVI melanoma): > 100 µM
TGI (SNB-19 CNS): > 100 µM
TGI (UACC-257 melanoma): > 100 µM

O=C(NCCCl)SCCO
TGI (SW-620 colon): > 100 µM
TGI (NCI-H522 lung): > 100 µM
TGI (786-0 renal): > 100 µM
TGI (OVCAR-4 ovarian): > 100 µM
TGI (M14 melanoma): > 100 µM
TGI (SNB-19 CNS): > 100 µM
TGI (UO-31 renal): > 100 µM
TGI (UACC-257 melanoma): > 100 µM

COc1cccc(N2C(=O)C3C4C=C5c6ccccc6N(c6ccccc6)C5(C3C2=O)[C@H]2C(=O)N(c3cccc(OC)c3)C(=O)[C@@H]42)c1 (some centres not stated)
TGI (SW-620 colon): > 100 µM
TGI (786-0 renal): > 100 µM
TGI (OVCAR-4 ovarian): > 100 µM
TGI (M14 melanoma): > 100 µM
TGI (LOX IMVI melanoma): > 100 µM
TGI (SNB-19 CNS): > 100 µM
TGI (UO-31 renal): > 100 µM
TGI (UACC-257 melanoma): > 100 µM

COC(=O)Cc1cc(=O)[nH]c2c1C(=O)CCC2
TGI (SW-620 colon): > 100 µM
TGI (NCI-H522 lung): > 100 µM
TGI (786-0 renal): > 100 µM
TGI (M14 melanoma): > 100 µM
TGI (SNB-19 CNS): > 100 µM
TGI (UO-31 renal): > 100 µM
TGI (UACC-257 melanoma): > 100 µM

CCOC(=O)Nc1cc2ccccc2c(N=Nc2ccccc2)c1O
TGI (MDA-MB-231 breast): > 100 µM
TGI (SW-620 colon): > 100 µM
TGI (NCI-H522 lung): > 100 µM
TGI (786-0 renal): > 100 µM
TGI (OVCAR-4 ovarian): 49.3 µM
TGI (M14 melanoma): > 100 µM
TGI (SNB-19 CNS): > 100 µM
TGI (UO-31 renal): > 100 µM
TGI (UACC-257 melanoma): > 100 µM

CC([O-])=C1C(=O)c2ccccc2C1=O.CC([O-])=C1C(=O)c2ccccc2C1=O.CC[O-].CC[O-].[Ti+4]
GI50 (SW-620 colon): > 100 µM
TGI (SW-620 colon): > 100 µM
GI50 (NCI-H522 lung): > 100 µM
TGI (NCI-H522 lung): > 100 µM
GI50 (786-0 renal): > 100 µM
TGI (786-0 renal): > 100 µM
GI50 (OVCAR-4 ovarian): > 100 µM
TGI (OVCAR-4 ovarian): > 100 µM
GI50 (M14 melanoma): > 100 µM
TGI (M14 melanoma): > 100 µM
GI50 (LOX IMVI melanoma): > 100 µM
TGI (LOX IMVI melanoma): > 100 µM
GI50 (SNB-19 CNS): 44.1 µM
TGI (SNB-19 CNS): > 100 µM
GI50 (UO-31 renal): > 100 µM
TGI (UO-31 renal): > 100 µM
GI50 (UACC-257 melanoma): > 100 µM
TGI (UACC-257 melanoma): > 100 µM

O=C1CCCCC12CCC/C2=N\O (configuration not stated)
TGI (SW-620 colon): > 100 µM
TGI (NCI-H522 lung): > 100 µM
TGI (786-0 renal): > 100 µM
TGI (OVCAR-4 ovarian): > 100 µM
TGI (M14 melanoma): > 100 µM
TGI (SNB-19 CNS): > 100 µM
TGI (UO-31 renal): > 100 µM
TGI (UACC-257 melanoma): > 100 µM

C=Cn1c([N+](=O)[O-])cnc1/C=C/c1ccc(C(=O)OCCN2CCOCC2)cc1
TGI (MDA-MB-231 breast): > 100 µM
TGI (SW-620 colon): > 100 µM
TGI (NCI-H522 lung): > 100 µM
TGI (786-0 renal): > 100 µM
TGI (OVCAR-4 ovarian): > 100 µM
TGI (M14 melanoma): > 100 µM
TGI (LOX IMVI melanoma): > 100 µM
TGI (SNB-19 CNS): > 100 µM
TGI (UACC-257 melanoma): > 100 µM
